# From ChEMBL document CHEMBL5352408, “Discovery of dehydroandrographolide derivatives with C19 hindered ether as potent anti-ZIKV agents with inhibitory activities to MTase of ZIKV NS5” (Eur J Med Chem, 2022)
# Calls of active or inactive are those of the source. The calls are words filed in the database; no cut-off is given here.
# Key:
# Genome polyprotein = Genome polyprotein (Zika virus, UniProt Q32ZE1); test: Inhibition of ZIKV NS5 MTase activity assessed as methyltransferase reaction using capped RNA substrate pre-incubated for 2.5 hrs followed by enzyme addition measured after 1 hrs by luminometer
# Genome polyprotein, sequence (Q32ZE1 2517-3419 limits assumed): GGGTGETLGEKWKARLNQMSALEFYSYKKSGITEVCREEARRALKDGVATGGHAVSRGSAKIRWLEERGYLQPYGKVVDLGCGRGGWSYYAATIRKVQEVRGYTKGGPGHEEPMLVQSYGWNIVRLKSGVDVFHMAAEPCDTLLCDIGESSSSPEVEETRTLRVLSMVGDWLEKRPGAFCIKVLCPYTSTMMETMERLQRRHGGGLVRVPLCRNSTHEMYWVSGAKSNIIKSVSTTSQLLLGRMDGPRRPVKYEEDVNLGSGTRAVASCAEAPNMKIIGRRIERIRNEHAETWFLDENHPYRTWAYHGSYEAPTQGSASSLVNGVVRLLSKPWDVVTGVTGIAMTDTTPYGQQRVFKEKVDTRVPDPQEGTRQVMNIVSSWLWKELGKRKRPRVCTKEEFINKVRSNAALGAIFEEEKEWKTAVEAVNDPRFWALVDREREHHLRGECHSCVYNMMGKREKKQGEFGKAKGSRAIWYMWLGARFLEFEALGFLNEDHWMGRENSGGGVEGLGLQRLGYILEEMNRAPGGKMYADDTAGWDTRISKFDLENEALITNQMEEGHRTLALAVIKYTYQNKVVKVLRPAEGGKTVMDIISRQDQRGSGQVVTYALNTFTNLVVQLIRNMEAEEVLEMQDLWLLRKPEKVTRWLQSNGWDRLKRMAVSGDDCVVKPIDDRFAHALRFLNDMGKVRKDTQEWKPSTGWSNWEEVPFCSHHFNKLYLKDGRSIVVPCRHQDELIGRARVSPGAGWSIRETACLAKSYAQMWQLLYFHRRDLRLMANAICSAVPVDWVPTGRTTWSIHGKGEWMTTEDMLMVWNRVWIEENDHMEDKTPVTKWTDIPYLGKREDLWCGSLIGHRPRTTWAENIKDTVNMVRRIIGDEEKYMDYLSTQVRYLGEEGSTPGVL
# Zika virus [1] = test: Antiviral activity against ZIKV infected in African green monkey vero cells assessed as reduction in plaque formation incubated for 5 days by crystal violet based assay; format: functional, organism-based; settings: for EC50: 120 h
# Zika virus [2] = test: Antiviral activity against ZIKV infected in African green monkey Vero cells assessed as inhibition of ZIKV E protein at 10 uM incubated for 48 hrs by Western blot analysis relative to control; format: functional
# [3] = Cytotoxicity against african green monkey Vero cells incubated for 96 hrs; format: toxicity, cell-based; settings: chlorocebus sabaeus
# Zika virus [4] = test: Antiviral activity against ZIKV infected in Vero cells assessed as late RNA synthesis to late viral life cycle by measuring reduction in viral RNA reduction at 10 uM treated 10 hrs post infection incubated for 48 hrs by qRT-PCR analysis based time of drug addition assay relative to 8 hrs post-infection; format: functional, organism-based
# Zika virus [5] = test: Antiviral activity against ZIKV infected in Vero cells assessed as viral infection at 10 uM pre-treated with Vero cells for 2 hrs followed by infected with virus cells for 2 hrs and measured upto 48 hrs in fresh medium by qRT-PCR analysis based time of drug addition assay; format: functional, organism-based; settings: time 4.0 hrs
# Zika virus [6] = test: Antiviral activity against ZIKV infected in African green monkey vero cells incubated for 48 hrs by qRT-PCR analysis; format: functional, organism-based
# Zika virus [7] = test: Antiviral activity against ZIKV infected in Vero cells assessed as late entry stage to late viral life cycle by measuring reduction in viral RNA reduction at 10 uM treated 1 to 2 hrs post infection incubated for 48 hrs by qRT-PCR analysis based time of drug addition assay; format: functional, organism-based
# Zika virus [8] = test: Antiviral activity against ZIKV infected in human Huh-7 cells incubated for 48 hrs by qRT-PCR analysis; format: functional, organism-based; settings: Huh-7, 48 h
# Zika virus [9] = test: Antiviral activity against ZIKV infected in African green monkey Vero cells incubated for 48 hrs by Western blot analysis relative to control; format: functional, organism-based
# [10] = Cytotoxicity against human Huh-7 cells incubated for 96 hrs; format: toxicity, cell-based
# NS5 (Zika virus) = NS5 (Zika virus) (UniProt A0A143MHK7); test: Inhibition of ZIKV RdRP
# NS5 (Zika virus), sequence (A0A143MHK7 as listed by the source): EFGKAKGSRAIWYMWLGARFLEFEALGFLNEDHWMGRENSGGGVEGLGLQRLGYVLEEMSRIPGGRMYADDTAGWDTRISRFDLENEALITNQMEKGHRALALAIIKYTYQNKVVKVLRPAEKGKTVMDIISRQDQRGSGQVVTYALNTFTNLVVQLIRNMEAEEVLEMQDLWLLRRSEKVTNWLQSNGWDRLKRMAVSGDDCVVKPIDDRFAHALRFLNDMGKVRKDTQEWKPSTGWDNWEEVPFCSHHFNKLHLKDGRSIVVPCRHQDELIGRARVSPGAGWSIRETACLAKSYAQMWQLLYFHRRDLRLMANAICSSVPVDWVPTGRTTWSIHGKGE
# [11] = Cytotoxicity against human A549 cells incubated for 96 hrs; format: toxicity, cell-based
# Zika virus [12] = test: Antiviral activity against ZIKV infected in Vero cells assessed as late viral life cycle by measuring reduction in viral RNA reduction at 10 uM treated 12 hrs post infection incubated for 48 hrs by qRT-PCR analysis based time of drug addition assay; format: functional, organism-based
# Zika virus [13] = test: Antiviral activity against ZIKV infected in human A549 cells incubated for 48 hrs by qRT-PCR; format: functional, organism-based; settings: A549, 48 h
# Zika virus [14] = test: Antiviral activity against ZIKV infected in Vero cells assessed as viral RNA reduction at 10 uM treated immediately post infection incubated for 48 hrs by qRT-PCR analysis based time of drug addition assay; format: functional, organism-based
# Zika virus [15] = test: Antiviral activity against ZIKV infected in Vero cells assessed as late viral life cycle by measuring reduction in viral RNA reduction at 10 uM treated 3 to 6 hrs post infection incubated for 48 hrs by qRT-PCR analysis based time of drug addition assay; format: functional, organism-based
# Zika virus [16] = test: Antiviral activity against ZIKV infected in African green monkey Vero cells assessed as inhibition of ZIKV E protein at 0.4 uM incubated for 48 hrs by Western blot analysis relative to control; format: functional
# Zika virus [17] = test: Antiviral activity against ZIKV infected in Vero cells assessed as virucidal effect at 10 uM pre-treated with virus for 2 hrs followed by infected with Vero cells for 2 hrs after washout transferred to normal medium measured after 48 hrs of post infection by qRT-PCR analysis based time of drug addition assay; format: functional, organism-based; settings: time 4.0 hrs
# Zika virus [18] = test: Antiviral activity against ZIKV infected in Vero cells assessed as inhibition of viral entry at 10 uM Co-treated with virus with Vero cells followed by transferred into fresh medium measured upto 48 hrs by qRT-PCR analysis based time of drug addition assay; format: functional, organism-based; settings: time 4.0 hrs
# [19] = biological target: Nonstructural protein 3 (Zika virus) (UniProt A0A024AXB9); test: Inhibition of ZIK virus NS2B-NS3 protease
# Nonstructural protein 3 (Zika virus), sequence (A0A024AXB9 as listed by the source): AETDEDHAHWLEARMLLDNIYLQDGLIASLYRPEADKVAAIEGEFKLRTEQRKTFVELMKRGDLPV
# Zika virus [20] = test: Antiviral activity against ZIKV infected in Vero cells assessed as late viral life cycle by measuring reduction in viral RNA reduction at 10 uM treated 8 hrs post infection incubated for 48 hrs by qRT-PCR analysis based time of drug addition assay; format: functional, organism-based
smiles,measurement,setting,value
Nc1ncnc2c1ncn2[C@@H]1O[C@H](C[C@@H](N)CC[C@H](N)C(=O)O)[C@@H](O)[C@H]1O [SINEFUNGIN],IC50,Genome polyprotein,19.2 µM
C=C1CC[C@H]2[C@@](C)(CC/C(=N\O)[C@@]2(C)COC(c2ccccc2)c2ccccc2)[C@@H]1/C=C/C1=CCOC1=O,IC50,Genome polyprotein,183 µM
same,EC50,Zika virus [1],3.49 µM
C=C1CC[C@H]2[C@@](C)(CCC(=O)[C@@]2(C)COC(c2ccccc2)(c2ccccc2)c2ccccc2)[C@@H]1/C=C/C1=CCOC1=O,Activity,Zika virus [1]; time 5.0 day,inactive
NC(=O)c1ncn([C@@H]2O[C@H](CO)[C@@H](O)[C@H]2O)n1 [RIBAVIRIN],inhibition at 10 µM,Zika virus [2],50%
C=C1CC[C@H]2[C@@](C)(CC/C(=N\O)[C@@]2(C)COC(c2ccccc2)(c2ccccc2)c2ccccc2)[C@@H]1/C=C/C1=CCOC1=O,CC50 at 96 h,[3],> 200 µM
same,IC50,Genome polyprotein,18.3 µM
same,Activity,Zika virus [4],inactive
same,Activity,Zika virus [5],inactive
same,EC50,Zika virus [6],480 nM
same,Activity,Zika virus [7],Active
same,EC50,Zika virus [8],370 nM
same,EC50,Zika virus [9],380 nM
same,CC50 at 96 h,[10],> 200 µM
same,inhibition,NS5 (Zika virus),inactive
same,CC50 at 96 h,[11],> 200 µM
same,Activity,Zika virus [12],inactive
same,EC50,Zika virus [13],450 nM
same,Activity,Zika virus [14],Active
same,Activity,Zika virus [15],Active
same,EC50,Zika virus [1],0.76 µM
same,inhibition at 0.4 µM,Zika virus [16],100%
same,Activity,Zika virus [17],inactive
same,Activity,Zika virus [18],inactive
same,inhibition,[19],inactive
same,Activity,Zika virus [20],Active
C=C1CC[C@@H]2[C@](C)(CO)[C@H](O)CC[C@@]2(C)[C@@H]1/C=C/C1=CCOC1=O,CC50 at 96 h,[3],> 200 µM
same,EC50,Zika virus [1],30.6 µM
C=C1CC[C@@H]2[C@](C)(COC(c3ccccc3)(c3ccccc3)c3ccccc3)[C@H](O)CC[C@@]2(C)[C@@H]1/C=C/C1=CCOC1=O,CC50 at 96 h,[3],> 200 µM
same,IC50,Genome polyprotein,38.9 µM
same,EC50,Zika virus [1],6.17 µM
C=C1CC[C@H]2[C@@](C)(CC/C(=N\O)[C@@]2(C)CO[Si](c2ccccc2)(c2ccccc2)C(C)(C)C)[C@@H]1/C=C/C1=CCOC1=O,CC50 at 96 h,[3],> 200 µM
same,IC50,Genome polyprotein,14.1 µM
same,EC50,Zika virus [1],0.71 µM
C=C1CC[C@@H]2[C@](C)(CO)[C@H](O)CC[C@@]2(C)[C@@H]1C/C=C1/C(=O)OC[C@H]1O [ANDROGRAPHOLIDE],CC50 at 96 h,[3],> 200 µM
same,EC50,Zika virus [1],39.3 µM
